Source: US9376665B2, “Method for producing intestinal cells” (National University Corporation Kumamoto University, priority 2010, dated 2016)

Key:
[1] = tested on: mouse ES cells; assay: Intestinal differentiation of mouse ES cells on M15 cells; marker expression by PCR and immunohistochemistry; format: cell-based; conditions: quantitative PCR, BIO or DAPT added alone after definitive endoderm induction, Day 20 (d20)
Experimental: In this example, a cell line R1 was used as mouse ES cells. The cell line R1 was maintained on mouse embryonic fibroblast (MEF) feeders in 2000 mg/L-glucose-containing DMEM supplemented with Leukemia Inhibitory Factor (LIF), 10% fetal bovine serum (FBS), 100 μM of non-essential amino acids (NEAA), 2 mM of L-Gln, 50 units/mL of penicillin and 50 μg/mL of streptomycin (PS), and 100 μM β-mercaptoethanol.
(§1) The ES cells were culture on M15 cells added with 20 ng/mL of activin and 50 ng/mL of bFGF in DMEM medium containing 10% fetal bovine sera and […] of glucose for 5 days, and were analyzed using flow cytometry for definitive endoderm. For intestinal differentiation, the ES cells were further cultured on M15 or MEF cells, in the presence of BIO and DAPT, or without BIO and DAPT but with FGFs, in media with 10% KSR at a glucose concentration of 2000 mg/mL.
RNA was extracted from the ES cells using TRI Reagent (Sigma) or RNeasy micro-kit (Qiagen), and then, was treated with DNase (Sigma). Three micrograms of RNA were reverse-transcribed using a MMLV reverse transcriptase (Toyobo) and oligo dT primers (Toyobo). […]

[2] = tested on: definitive endoderm cells; assay: Re-culture of sorted ES cell-derived definitive endoderm cells on feeder cells with BIO and DAPT; marker expression; format: cell-based, mouse
Experimental: as §1
The cells were dissociated with Cell Dissociation Buffer (Invitrogen), adjusted to 1×10^6 cells/50 μL, and stained with appropriate antibodies. A biotin- or Alexa 488-conjugated anti-E-cadherin monoclonal antibody ECCD2, and a phycoerythrin (PE)-conjugated anti-Cxcr4 mAb 2B11 (BD Pharmingen) were used as the antibodies. The stained cells were purified with FACS Aria (BD Pharmingen). Data were recorded using the BD FACSDiva Software program (BD Pharmingen), and were analyzed using the Flowjo program (Tree Star).
(§2) RNA was extracted from the ES cells using TRI Reagent (Sigma) or RNeasy micro-kit (Qiagen), and then, was treated with DNase (Sigma). Three micrograms of RNA were reverse-transcribed using a MMLV reverse transcriptase (Toyobo) and oligo dT primers (Toyobo). The PCR conditions for each cycle include initial denaturation at 96° C. for one minute, and the second and subsequent cycles of denaturation at 96° C. for 30 seconds, annealing at 60° C. for 2 seconds and extension at 72° C. for 20 seconds, and the final cycle of extension at 72° C. for 7 minutes. RT-PCR products were separated by 5% non-denaturing polyacrylamide gel electrophoresis, stained with SYBR Green I (Molecular Probes), and visualized using Gel Logic 200 Imaging System (Kodak).

[3] = tested on: mouse ES cells; assay: Test Example 2: addition of various activators, proportion of Cdx2-positive cells by flow cytometry, feeder-free; format: cell-based; conditions: for efficiency of differentiation, BMP4 or SAG added besides FGF2: 15th day of cultivation, with BIO and DAPT
Experimental: Therefore, next, an experiment in which the FGF signaling, the BMP signaling and the Hh signaling were activated was carried out. In view of micro-array data showing that MEF cells express FGF2 and BMP4, 50 ng/mL of FGF2 (PEPROTECH) and 25 ng/mL of BMP4 (R&D Systems) were used to activate the FGF signaling and the BMP signaling. Furthermore, as to activation of the Hh signaling, 300 nM of SAG (MERCK) (smoothend agonist; smo) was used.
For the experiment of inducing the differentiation, the induction of differentiation was carried out in a feeder-free system as described below. First, mouse ES cells were plated on a gelatin-coated dish at 6,900 cells/cm^2. The ES cells were cultured for 7 days in DMEM medium (Dulbecco's Modified Eagle Medium) (Invitrogen, Glasgow, UK) containing 4,500 mg/L of glucose, supplemented with NEAA, L-Gln, PS, β-ME, 10 μg/mL of Insulin (Sigma-Aldrich), […] of Transferin (Sigma-Aldrich), 6.7 pg/mL of Selenium (Sigma-Aldrich), 0.25% AlbuMax (Invitrogen), and 10 ng/mL of recombinant human activin A (R&D Systems, Minneapolis, Minn.), and then, the culture medium was replaced with 10% KSR containing 2,000 mg/mL of glucose, BIO (5 μM) and DAPT (10 μM) and further supplemented with the activator or growth factor. After that, cell culturing was further continued, the cells were separated on the 10th day and the 15th day of cultivation as described in Example 1, and then, the proportion of Cdx2-positive cells was evaluated by use of flow cytometry. The flow cytometry (FACS) analysis was carried out using BD Cytofix/Cytoperm™ Kit (BD Biosciences) in accordance with a manual provided by the manufacturer.

[4] = tested on: ES cells; assay: Effect of signalling inhibitors on intestinal differentiation by BIO and DAPT (Cdx2 RT-PCR and immunohistochemistry); format: cell-based, mouse; conditions: inhibitor added with BIO and DAPT on MEF cells; RT-PCR and anti-Cdx2 immunohistochemistry, day 12
Experimental: Definitive endoderms were sorted from ES cells which had been cultured on M15 cells with activin and bFGF for 4 days, and the sorted cells were re-plated on MEF cells.
10 μg/mL of human bFGF (Peprotech), U0126 (Sigma), LY294002 (Calbiochem), and SU5402 (Calbiochem), respectively;

[5] = tested on: mouse ES cells; assay: Test Example 1: addition of various inhibitors, Cdx2 expression by real-time PCR; format: cell-based; conditions: inhibitor plus BIO (5 μM) and DAPT (10 μM) on MEF cells for 8 days (12th day of cultivation), Noggin 500 ng/mL, Dorsomorphin 200 nM, KAAD-Cyclopamine 250 nM
Experimental: In order to clarify what mechanism induces the intestinal differentiation in a case where mouse ES cells are used as a starting material, inhibitors against various signal transduction systems were added besides BIO and DAPT, and conditions in which expression of an intestinal marker Cdx2 decreases were evaluated.
As an inhibitor, 500 ng/mL of Noggin (R&D systems) or 200 nM of Dorsomorphin (SIGMA-ALDRICH), which is a BMP-signaling inhibitor; 1 μM of LE540 (Wako), which is a retinoic-acid-signaling inhibitor; 250 nM of KAAD-Cyclopamine (Calbiochem), which is a hedgehog-signaling inhibitor; or 10 μM of AMD3100 (SIGMA-ALDRICH), which is a Cxcr4 inhibitor, was added thereto. […] After that, the above-sorted definitive endoderm cells were cultured in the presence of BIO (5 μM) and DAPT (10 μM) as well as the above-mentioned inhibitor for 8 days (until the 12th day of cultivation) in accordance with the method described in Example 1, RNAs were extracted from the cells by the method described in Example 1, and expression of the Cdx2 gene, namely an intestinal marker, was analyzed by real-time PCR. The real-time PCR was carried out by use of the primer pairs used in Example 1 (see Table 1), Thunderbird SYBR qPCR mix (Toyobo), and 7500 Fast Real-Time PCR system (ABI Company).

[6] = tested on: definitive endoderm cells; assay: Effects of FGFs on intestinal differentiation of definitive endoderm cells (RT-PCR, Cdx2 immunohistochemistry); format: cell-based, mouse; conditions: FGFs added from Day 4 of the differentiation, on MEF cells; immunohistochemistry on day 12
Experimental: as §1
256 ng/mL of FGF2 (human bFGF) (Peprotech); and
50 ng/mL of FGF4 (Peprotech), FGF5 (Sigma), FGF7 (R&D Systems), FGF8 (Cosmo Bio), FGF9 (Peprotech), FGF10 (R&D Systems) and FGF18 (Sigma), respectively.
as §2

[7] = high BIO concentration with DAPT (10 μM)
[8] = high concentration of DAPT in the presence of BIO (5 μM)

O=C1Nc2cc(Br)ccc2/C1=C1/Nc2ccccc2/C1=N\O [BIO, (2′Z,3′E)-6-bromoindirubin-3′-oxime]
expression of Intestinal fatty acid binding protein (Ifabp) [1]: induced expression | Hoxc8 [2, 7]: turning on | Pax8 [2, 7]: turned off

C[C@H](NC(=O)Cc1cc(F)cc(F)c1)C(=O)N[C@H](C(=O)OC(C)(C)C)c1ccccc1 [DAPT, N-[(3,5-difluorophenyl)acetyl]-L-Ala-2-phenyl-L-Gly-tert-butyl-OH]
expression of Intestinal fatty acid binding protein (Ifabp) [1]: induced expression | anterior marker Pax8 [2, 8]: turned off | posterior marker Hoxc8 [2, 8]: inducing

CNC1CCC(N(Cc2cccc(-c3ccncc3)c2)C(=O)c2sc3ccccc3c2Cl)CC1 (stereo not drawn) [SAG, N-Methyl-N′-(3-pyridinylbenzyl)-N′-(3-chlorobenzo[b]thiophene-2-carbonyl)-1,4-diaminocyclohexane, reference compound]
number of Cdx2-positive cells versus control (only BIO and DAPT) ([3]; 10th day of cultivation, FGF2 50 ng/mL or SAG 300 nM added besides BIO and DAPT): decrease | efficiency of differentiation, BMP4 or SAG added besides FGF2 [3]: yet more efficiently differentiate

Cc1c[nH]c(/C=C2\C(=O)Nc3ccccc32)c1CCC(=O)O [SU5402]
intestinal differentiation mediated by BIO and DAPT (Cdx2 expression) [4]: partially inhibited

N#CC(=C(/N)Sc1ccccc1N)/C(C#N)=C(\N)Sc1ccccc1N [U0126]
intestinal differentiation mediated by BIO and DAPT (Cdx2 expression) [4]: not inhibited

KAAD-Cyclopamine [reference compound]
expression of Cdx2 [5]: lowered

B1: BMP4: BMP4 (R&D Systems), activates the BMP signaling (protein, UniProt P12644 293-408, looked up)
Bone morphogenetic protein 4: SPKHHSQRARKKNKNCRRHSLYVDFSDVGWNDWIVAPPGYQAFYCHGDCPFPLADHLNSTNHAIVQTLVNSVNSSIPKACCVPTELSAISMLYLDEYDKVVLKNYQEMVVEGCGCR
number of Cdx2-positive cells, BMP4 added in addition to SAG ([3]; 10th day of cultivation, BMP4 25 ng/mL, SAG 300 nM, BIO and DAPT): improved | efficiency of differentiation, BMP4 or SAG added besides FGF2 [3]: yet more efficiently differentiate

B2: FGF4: FGF4 (Peprotech), growth factor (protein, UniProt P08620 31-206, looked up)
Fibroblast growth factor 4: APTAPNGTLEAELERRWESLVALSLARLPVAAQPKEAAVQSGAGDYLLGIKRLRRLYCNVGIGFHLQALPDGRIGGAHADTRDSLLELSPVERGVVSIFGVASRFFVAMSSKGKLYGSPFFTDECTFKEILLPNNYNAYESYKYPGMFIALSKNGKTKKGNRVSPTMKVTHFLPRL
induction of Cdx2-expressing intestinal cells [6]: more potent in inducing Cdx2-expressing cells than FGF2 (bFGF)

B3: Noggin: Noggin (R&D systems), a BMP-signaling inhibitor (protein, UniProt Q13253 28-232, looked up)
Noggin: QHYLHIRPAPSDNLPLVDLIEHPDPIFDPKEKDLNETLLRSLLGGHYDPGFMATSPPEDRPGGGGGAAGGAEDLAELDQLLRQRPSGAMPSEIKGLEFSEGLAQGKKQRLSKKLRRKLQMWLWSQTFCPVLYAWNDLGSRFWPRYVKVGSCFSKRSCSVPEGMVCKPSKSVHLTVLRWRCQRRGGQRCGWIPIQYPIISECKCSC
expression of Cdx2 [5]: lowered

B4: FGF18: FGF18 (Sigma), growth factor (protein, UniProt O76093 28-207, looked up)
Fibroblast growth factor 18: EENVDFRIHVENQTRARDDVSRKQLRLYQLYSRTSGKHIQVLGRRISARGEDGDKYAQLLVETDTFGSQVRIKGKETEFYLCMNRKGKLVGKPDGTSKECVFIEKVLENNYTALMSAKYSGWYVGFTKKGRPRKGPKTRENQQDVHFMKRYPKGQPELQKPFKYTTVTKRSRRIRPTHPA
induction of Cdx2-expressing intestinal cells [6]: induced intestinal differentiation of ES cells, but the levels thereof were lower

B5: FGF7: FGF7 (R&D Systems), growth factor (protein, UniProt P21781 32-194, looked up)
Fibroblast growth factor 7: CNDMTPEQMATNVNCSSPERHTRSYDYMEGGDIRVRRLFCRTQWYLRIDKRGKVKGTQEMKNNYNIMEIRTVAVGIVAIKGVESEFYLAMNKEGKLYAKKECNEDCNFKELILENHYNTYASAKWTHNGGEMFVALNQKGIPVRGKKTKKEQKTAHFLPMAIT
induction of Cdx2-expressing intestinal cells [6]: induced intestinal differentiation of ES cells, but the levels thereof were lower

B6: FGF10: FGF10 (R&D Systems), growth factor (protein, UniProt O15520 38-208, looked up)
Fibroblast growth factor 10: QALGQDMVSPEATNSSSSSFSSPSSAGRHVRSYNHLQGDVRWRKLFSFTKYFLKIEKNGKVSGTKKENCPYSILEITSVEIGVVAVKAINSNYYLAMNKKGKLYGSKEFNNDCKLKERIEENGYNTYASFNWQHNGRQMYVALNGKGAPRRGQKTRRKNTSAHFLPMVVHS
induction of Cdx2-expressing intestinal cells [6]: induced intestinal differentiation of ES cells, but the levels thereof were lower
